Measurements taken from patent US20200289520A1, “COMPOSITION AND METHOD FOR TREATING PERIPHERAL T-CELL LYMPHOMA AND CUTANEOUS T-CELL LYMPHOMA” (Rhizen Pharmaceuticals SA, priority 2017, published 2020).
Entries after “also recorded” stand apart in the source; their conditions may differ.

Assays:
[1] = system: relapsed or refractory T-cell lymphoma; test: Phase I/Ib study in patients with relapsed or refractory T-cell lymphoma (PTCL and CTCL); format: in vivo, human; conditions: for ORR (objective response rate) / ORR (objective response rate), patients: oral BID
Protocol: This is a Phase I/Ib, 3+3 design study in patients with relapsed or refractory T-cell lymphoma
Compound (A) (tenalisib) was given orally twice a day in 28-day cycles and dose-limiting toxicities (DLTs) were assessed during the first cycle.
Intra-patient dose escalation was allowed following safety of higher doses. • Primary Objectives: The Safety, Pharmacokinetics (PK), Maximum Tolerated Dose (MTD) • Secondary Objectives: Pharmacodynamics, Overall response rate (ORR), Duration of response (DOR)
Histologically confirmed T-cell Non-Hodgkin's lymphoma.
Relapsed after, or refractory to ≥1 prior treatments, and not eligible for transplantation and or approved therapy; ECOG performance status ≤2; patient with measurable or evaluable disease; Adequate organ system function: ANC ≥750/μL; platelets ≥50 K/μL.
Prior therapy that inhibits PI3K/BTK/mTOR were part of exclusion criteria.

phospho-AKT (Ser473) = test: Reduction of pAKT in T-cell lymphoma cell lines (Western blotting); format: cell-based; conditions: Western blot normalized to actin, FIG. 2
Protocol: AKT, a serine threonine kinase mediates the downstream effects of PI3K activity and modulates several cell processes including survival and growth. Reduction of pAKT by Compound (A) in representative cell lines was determined by Western blotting using a phospho-AKT (Ser^473) antibody. Band intensity was measured and quantified using ImageJ software and normalized to actin.

pAKT = pAKT in patient-derived primary malignant T cells (Phosphoflow); format: cell-based, human; conditions: CTCL donors n=6, 1.5 h incubation then cytokine activation 30 min; FIG. 4
Protocol: (§1) The effect of Compound (A) on pAKT in patient-derived primary cells was also studied. Malignant T cells from Cutaneous T-cell Lymphoma (CTCL) patient donors (n=6) were purified using fluorescence-activated cell sorting (FACS) and cultured overnight in RPMI/1% BSA. Cells were incubated with desired concentrations of Compound (A) for 1.5 h followed by activation with a cytokine mixture (20 ng/ml IL2+5 ng/ml IL7+10 ng/ml IL15+10% FBS) for 30 min. pAKT was estimated using Phosphoflow and normalized to total AKT. Data were analyzed using Prism 5.0 software analysis. For apoptosis assays, FACS purified cells from CTCL donors (n=4) were cultured in RPMI/10% FBS+20 ng/ml IL2+5 ng/ml IL7+10 ng/ml IL15 with and without Compound (A), LY294002, or camptothecin for 48 h. Apoptosis was assayed by Annexin V/PI staining.

[2] = system: Malignant T cells from Cutaneous T-cell Lymphoma (CTCL) patient donors; test: Apoptosis by Annexin V/PI staining in purified malignant T-cells from CTCL donors; format: cell-based, human; conditions: CTCL donors n=4, 48 h, FIG. 5
Protocol: as §1

[3] = system: T-cell lymphoma cell lines (Jurkat, MOLT-4, CCRF-CEM, HuT-78, HuT-102, Sez4 and HH); test: Anti-proliferative effect in T-cell lymphoma cell lines (MTT assay); format: cell-based; conditions: 48-72 h incubation, FIG. 1
Protocol: Compound (A) was tested across a panel of T-cell lymphoma cell lines (Jurkat, MOLT-4, CCRF-CEM, HuT-78, HuT-102, Sez4 and HH). Cells were plated in 96-well plates and incubated with desired concentrations of Compound A for 48-72 h. At the end of the incubation period, MTT ((3-(4,5-dimethylthiazol-2-yl)-2,5-diphenyltetrazolium bromide)) was added. The plate was placed on a shaker for 5 min to mix the formazan and the optical density at 560 nm was measured on a spectrophotometer. Data were plotted using Graphpad prism for calculation of the IC50 concentrations.

caspase-3 = test: Induction of caspase 3 in T-lymphoma cell lines; format: cell-based; conditions: 48 h incubation, fluorimetric; FIG. 3
Protocol: Cells (Jurkat, MOLT-4, CCRF-CEM, HuT-78 and HuT-102) were incubated with desired concentrations of Compound (A) for 48 h. An equal number of cells per well (0.3×10^6 cells) were used. Increase in apoptosis manifested by an elevation in caspase-3 levels was determined using a Caspase-3 kit from Millipore. Induction of Caspase 3 by Compound A was measured fluorimetrically.

[4] = system: MOLT-4 (human T lymphoblast cell line) xenograft; test: MOLT-4 subcutaneous mouse xenograft model; format: in vivo
Protocol: The anti-tumor effect of Compound (A) was determined in a MOLT-4 (representing human T lymphoblast cell line) subcutaneous mouse xenograft model. Briefly, 10^6 cells were injected into the flank region. Mice were randomized according to body weight into […] groups of five. A week after tumor cell injection, mice either received the vehicle, oral administration of Compound (A) at 50 mg/kg/BID Compound (A), or administration of cytarabine (Ara-C), over an 18-day study period. At the end of the study period, animals were sacrificed and the tumors harvested.

Compound: CC[C@H](Nc1ncnc2[nH]cnc12)c1oc2ccccc2c(=O)c1-c1cccc(F)c1 [Compound (A), (S)-2-(1-((9H-purin-6-yl)amino)propyl)-3-(3-fluorophenyl)-4H-chromen-4-one]
- CR (complete response) ([1]; All, 58 treated/35 evaluable): (9) %
- CR (complete response), patients ([1]; All, 58 treated/35 evaluable): 3 n
- DCR (CR + PR + SD) ([1]; All, 58 treated/35 evaluable): 74%
- DCR (CR + PR + SD), patients ([1]; All, 58 treated/35 evaluable): 26 n
- PD (progressive disease) ([1]; All, 58 treated/35 evaluable): 23%
- PD (progressive disease), patients ([1]; All, 58 treated/35 evaluable): 8 n
- PR (partial response) ([1]; All, 58 treated/35 evaluable): (37) %
- PR (partial response), patients ([1]; All, 58 treated/35 evaluable): 13 n
- ORR (objective response rate) ([1]; All, 58 treated/35 evaluable): (46) %
- ORR (objective response rate), patients ([1]; All, 58 treated/35 evaluable): 16 n
- DCR (CR + PR + SD) ([1]; CTCL, 30 treated/20 evaluable): 80%
- DCR (CR + PR + SD), patients ([1]; CTCL, 30 treated/20 evaluable): 16 n
- PD (progressive disease) ([1]; CTCL, 30 treated/20 evaluable): 20%
- PD (progressive disease), patients ([1]; CTCL, 30 treated/20 evaluable): 4 n
- PR (partial response) ([1]; CTCL, 30 treated/20 evaluable): (45) %
- PR (partial response), patients ([1]; CTCL, 30 treated/20 evaluable): 9 n
- ORR (objective response rate) ([1]; CTCL, 30 treated/20 evaluable): (45) %
- ORR (objective response rate), patients ([1]; CTCL, 30 treated/20 evaluable): 9 n
- CR (complete response) ([1]; PTCL, 28 treated/15 evaluable): (20) %
- CR (complete response), patients ([1]; PTCL, 28 treated/15 evaluable): 3 n
- DCR (CR + PR + SD) ([1]; PTCL, 28 treated/15 evaluable): 74%
- DCR (CR + PR + SD), patients ([1]; PTCL, 28 treated/15 evaluable): 10 n
- PD (progressive disease) ([1]; PTCL, 28 treated/15 evaluable): 27%
- PD (progressive disease), patients ([1]; PTCL, 28 treated/15 evaluable): 4 n
- PR (partial response) ([1]; PTCL, 28 treated/15 evaluable): (27) %
- PR (partial response), patients ([1]; PTCL, 28 treated/15 evaluable): 4 n
- ORR (objective response rate) ([1]; PTCL, 28 treated/15 evaluable): (47) %
- ORR (objective response rate), patients ([1]; PTCL, 28 treated/15 evaluable): 7 n
- endogenous pAKT expression (phospho-AKT (Ser473)): dose-dependent reduction
- inhibition of pAKT in purified malignant T-cells (pAKT): dose-dependent inhibition of pAKT
- apoptosis in purified malignant T-cells [2]: dose-dependent increases in apoptosis
- proliferation / growth of T-lymphoma cell lines [3]: dose-dependent reduction in proliferation
- caspase-3 induction (caspase-3): dose-dependent increase in caspase-3
- tumor growth ([4]; 50 mg/kg BID oral, 18-day study period, vs vehicle, FIG. 6): significantly delayed tumor growth; also recorded: significant delay in tumor growth
- tolerability (body weight, adverse effects) ([4]; mice, daily dose of 50 mg/kg): without body weight loss or noticeable adverse effects
